Data reported in US20200246284A1 (Academia Sinica, priority 2015, published 2020).
“And” between values parts separate entries of the source, which are not always exact repeats. Equal values may be shown once. Read-outs that look alike come from different tables or passages of the source.

Experiments:
CV1 renal fibroblasts = experiment: Cytotoxicity normal tissue 72 hr; type: cell-based, African green monkey (Cercopithecus aethiops)
MS-5 adult BM stroma = experiment: Cytotoxicity normal tissue 72 hr; type: cell-based, mouse
[1] = system: nude mice bearing prostate 22Rv/HL2; experiment: Complete blood count, 22Rv/HL2 xenograft mice; details: 24 hrs after last treatment
Ly18 = experiment: Cytotoxicity DLBCL; details: read-out: cytotoxicity IC50; LY18, DLBCL GCB
Description: (§1) After 72 hours, the cultures were pulsed with Alamar Blue overnight, and the fluorescent intensity of resulted cultures was measured by a Synergy H1 plate-reader (BioTek Inc).

[2] = system: nude mice bearing prostate 22Rv/HL2; experiment: Blood chemistry, 22Rv/HL2 xenograft mice; details: 24 hrs after last treatment
in vitro [3] = details: rat, microsomes
[4] = system: BMEC-hTert BM endothelium; type: cell-based, human
Ly3 (OCI-LY3) = details: human
Description: as §1

[5] = Pharmacokinetics, single IV 1 mg/kg or oral 10 mg/kg; type: in vivo, Sprague Dawley rats; details: for oral absorption: 10 mg/kg
Description: A single intravenous dose was administered via an indwelling catheter in the jugular vein to a group of 2 male rats at a dose level of 1.0 mg/kg. The formulations were prepared as a solution in 5.0% w/v DMSO with 10% w/v Cremophor in distilled water. […] The formulations were prepared as a solution in 0.5% w/v CMC in distilled water. Serial blood samples were collected from the jugular vein catheter up to 24 h post-dose from all animals in groups.

in vitro [6] = details: human, plasma
[7] = system: nude mice bearing prostate 22Rv/HL2 tumor xenografts; experiment: Pathological examination of organs and body weight, 22Rv/HL2 xenograft mice
JEKO-1 = details: human
Description: as §1

H526 xenograft = experiment: SCLC H526 xenograft in nude mice; type: in vivo, mouse; details: 40 mg/kg i.v.
Z-138 [8] = experiment: Combination with BO-1055, MCL (Tables 28, 29); type: cell-based, human; details: read-out: IC50 single drug
[9] = system: HUVEC umbilical endothelium; experiment: Cytotoxicity normal tissue 72 hr; type: cell-based, human
A204 rhabdomyosarcoma = experiment: Cytotoxicity sarcoma; details: read-out: cytotoxic activity (IC50), A204 (rhabdoid?)
Description: as §1

LY7 (OCH-Ly7) = experiment: Cytotoxicity DLBCL; details: read-out: cytotoxicity IC50; LY7, DLBCL GCB
ICR mice = experiment: Acute intravenous 14-day toxicity; details: for Mortality (N/N): 14 days
Z-138 [10] = experiment: Cytotoxicity mantle cell lymphoma
Description: as §1

NECB-1 = experiment: Cytotoxicity mantle cell lymphoma; details: read-out: cytotoxicity IC50; NECB-1, mantle cell lymphoma
Description: as §1

H1373 = type: cell-based, human
[11] = system: BEAS2B SV40 bronchial epithelium; type: cell-based, human
H146 = experiment: Cytotoxicity SCLC 72 hr alamar blue; type: cell-based, human
H525 = type: cell-based, human
NOSE ovarian epithelium = type: cell-based, human
H647 = type: cell-based, human
H187 = experiment: Cytotoxicity SCLC 72 hr alamar blue; type: cell-based, human
H841 = experiment: Cytotoxicity SCLC 72 hr alamar blue; type: cell-based, human
CL97 = type: cell-based, human
H526 = experiment: Cytotoxicity SCLC 72 hr alamar blue; type: cell-based, human
BMMSC BM mesenchyme = experiment: Cytotoxicity normal tissue 72 hr; type: cell-based, human
H358 = type: cell-based, human
H249 = experiment: Cytotoxicity SCLC 72 hr alamar blue; type: cell-based, human
H226 = type: cell-based, human

CN(C)CCNC(=O)c1cccc(NC(=O)Nc2ccc(N(CCCl)CCCl)cc2)c1 [BO-1055, Ureidomustine]
IC50 (CV1 renal fibroblasts; Chlorocebus sabaeus, Fibroblast, 72 h): > 100 µM | IC50 (MS-5 adult BM stroma; MS-5 (mouse), 72 hr): ≥ 10 µM | BASO [1]: 0.06 10^3/μL | EOS [1]: 0.14 10^3/μL | LYM [1]: 1.52 10^3/μL | MONO [1]: 0.08 10^3/μL | NEU [1]: 0.83 10^3/μL | PLT [1]: 195 10^3/μL | RBC [1]: 9.52 10^6/μL | WBC [1]: 2.98 10^3/μL | IC50 (Ly18): 0.61 µM | ALT [2]: 56.83 U/L | AST [2]: 102.17 U/L | BUN [2]: 37.23 mg/dL | CREA [2]: 0.38 mg/dL | UA [2]: 3.73 mg/dL | half-life (in vitro [3]): 29.7 min | IC50 ([4]; BMEC-hTert, 72 hr): ≥ 10 µM | IC50 (Ly3 (OCI-LY3)): 3.5 µM | AUC (0-last) ([5]; IV 1 mg/kg, rat): 0.92581 µg·h/mL | AUC (0-∞) ([5]; IV 1 mg/kg, rat): 0.93493 µg·h/mL | CLss ([5]; IV 1 mg/kg, rat): 1.08 L/h/kg | Vss ([5]; IV 1 mg/kg, rat): 0.15 L/kg | t1/2 ([5]; IV 1 mg/kg, rat): 34.8 min | C0 ([5]; male, Sprague Dawley, plasma, IV 1 mg/kg, rat): 12 µg/mL | plasma levels after oral administration ([5]; oral 10 mg/kg, LLOQ […]): No quantifiable levels | oral absorption ([5]; oral 10 mg/kg, rat): no oral absorption | oral absorption ([5]; oral 10 mg/kg, rat, listed as ureidomustine): No Oral Absorption | fraction unbound (in vitro [6]): 0.01 | fraction unbound at 2 h (in vitro [6]): 0.01 | average body-weight ([7]; after cessation of treatment): recovered on day 35-40 | pathological change in heart, liver, spleen, lung and kidney ([7]; day 42 after onset of drug administration): no apparent pathological change | IC50 (JEKO-1): 0.27 µM | complete remission (CR) (H526 xenograft; 28 d): 3/4 | complete remission (CR) (H526 xenograft; 32 d): 2/4 | complete remission (CR) (H526 xenograft; 77 d): 1/4 | IC50 (Z-138 [8]): 0.299 µM and 0.303 µM and 0.301 µM | IC50 [9]: 50 µM | IC50 (A204 rhabdomyosarcoma): 0.08 µM | IC50 (LY7 (OCH-Ly7)): 5.06 µM | Post dosing deaths at >1 hr (ICR mice; 50 mg/kg): 0 | Mortality (N/N) (ICR mice; 50 mg/kg i.v.): 0/6 | Post dosing deaths at >1 hr (ICR mice; 60 mg/kg): 0 | Mortality (N/N) (ICR mice; 60 mg/kg i.v.): 0/6 | Post dosing deaths at >1 hr (ICR mice; 70 mg/kg): 1 | Mortality (N/N) (ICR mice; 70 mg/kg i.v.): 1/6 | Post dosing deaths at >1 hr (ICR mice; 80 mg/kg): 6 | Mortality (N/N) (ICR mice; 80 mg/kg i.v.): all mice died and 6/6 | Post dosing deaths at >1 hr (ICR mice; 100 mg/kg): 6 | Mortality (N/N) (ICR mice; 100 mg/kg i.v.): 6/6 | IC50 (Z-138 [10]; read-out: cytotoxicity IC50, Z-138, mantle cell lymphoma): 0.3 µM | IC50 (Z-138 [10]; read-out: mean IC50±SD, Z-138): 0.182 ± 0.15 µM | IC50 (NECB-1): 7.71 µM and 8.41 µM

N.N.[Cl][Pt][Cl] [Cisplatin]
IC50 (H1373): 9.46 µM | IC50 (CV1 renal fibroblasts; read-out: IC50): 97.9 µM | IC50 (MS-5 adult BM stroma; read-out: IC50): 22 µM | IC50 [11]: 4.1 µM | IC50 ([4]; read-out: IC50): 20 µM | IC50 (H146): 3.77 µM | IC50 (H525): 7.74 µM | IC50 (NOSE ovarian epithelium): ≥ 25 µM | IC50 (H647): 8.75 µM | IC50 (H187): 1.01 µM | IC50 (H841): ≥ 20 µM | IC50 ([9]; read-out: IC50): 50 µM | IC50 (CL97): < 15 µM | IC50 (H526): 2.85 µM | IC50 (BMMSC BM mesenchyme): 20 µM | IC50 (H358): 5.9 µM | IC50 (H249): 1.51 µM | IC50 (H226): 2.9 µM
